The values that follow come from ChEMBL document CHEMBL1641531, “Receptor activity and conformational analysis of 5'-halogenated resiniferatoxin analogs as TRPV1 ligands” (Bioorg Med Chem Lett, 2011).

Assay [1] has as its target T1, Transient receptor potential cation channel subfamily V member 1 (Rattus norvegicus, UniProt O35433). Put plainly: Displacement of [3H]RTX from rat […] expressed in CHO cells by competitive binding assay. The assay is classed as cell-based. Background: Loss of bound radioactivity is the signal in a displacement assay; it reports binding, not function.
For assay [2], the target named is Transient receptor potential cation channel subfamily V member 1 (Rattus norvegicus) (UniProt O35433). Kind of assay: Agonist activity at rat TRPV1 expressed in CHO cells assessed as 45Ca2+ uptake relative to capsaicin. The assay is classed as functional, cell-based.
Sequence of Transient receptor potential cation channel subfamily V member 1 (Rattus norvegicus) (O35433 whole entry): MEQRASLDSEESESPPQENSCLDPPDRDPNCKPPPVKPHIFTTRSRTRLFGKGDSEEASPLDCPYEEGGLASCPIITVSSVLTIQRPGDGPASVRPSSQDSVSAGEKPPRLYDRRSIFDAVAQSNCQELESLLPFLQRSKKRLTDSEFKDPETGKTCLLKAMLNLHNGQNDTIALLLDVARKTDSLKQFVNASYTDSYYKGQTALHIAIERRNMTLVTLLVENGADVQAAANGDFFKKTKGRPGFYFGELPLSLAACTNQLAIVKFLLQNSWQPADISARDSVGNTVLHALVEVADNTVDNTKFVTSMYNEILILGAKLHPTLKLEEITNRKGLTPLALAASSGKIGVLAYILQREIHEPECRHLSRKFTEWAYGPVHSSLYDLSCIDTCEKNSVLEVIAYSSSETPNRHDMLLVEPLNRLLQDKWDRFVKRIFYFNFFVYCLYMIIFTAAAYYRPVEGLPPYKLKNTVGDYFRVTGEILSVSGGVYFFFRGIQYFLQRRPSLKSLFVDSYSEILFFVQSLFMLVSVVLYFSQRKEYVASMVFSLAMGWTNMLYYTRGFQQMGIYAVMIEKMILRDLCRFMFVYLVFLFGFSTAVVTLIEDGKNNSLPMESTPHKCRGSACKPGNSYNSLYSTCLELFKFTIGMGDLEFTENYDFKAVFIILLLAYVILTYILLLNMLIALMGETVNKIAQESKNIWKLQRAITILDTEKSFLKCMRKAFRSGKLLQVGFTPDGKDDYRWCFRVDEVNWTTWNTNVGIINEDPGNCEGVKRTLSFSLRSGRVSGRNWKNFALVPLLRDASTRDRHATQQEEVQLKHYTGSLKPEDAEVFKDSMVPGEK
For assay [3] the target is unchanged. Kind of assay: (§1) Antagonist activity at rat TRPV1 expressed in CHO cells assessed as response to capsaicin-stimulated 45Ca2+ uptake. The class given is functional, cell-based. Also noted: scale not given: the % may be the effect or the level left.
Assay [4] deals with T1, Transient receptor potential cation channel subfamily V member 1. Put plainly: Agonist activity at rat TRPV1 expressed in CHO cells assessed as 45Ca2+ uptake. The class given is functional, cell-based.
Assay [5] has the same target. Described as §1. The assay is classed as functional, cell-based.

T1 sequence (O35433 whole entry): as above

As a reminder, the Ki is the equilibrium dissociation constant of an inhibitor or competing ligand from its target. For the compound `C=C(C)[C@@]12C[C@@H](C)C34OC(Cc5ccccc5)(OC1[C@@H]3C=C(COC(=O)Cc1cc(Br)c(OC(C)=O)c(OC)c1)C[C@]1(O)C(=O)C(C)=C[C@@H]41)O2` (stereo partly specified), in assay [1], the Ki was found to be 0.3 nM. For the same compound, the Activity in assay [2] amounted to 37%; in assay [3], 30%.
For `C=C(C)[C@@]12C[C@@H](C)C34OC(Cc5ccccc5)(OC1[C@@H]3C=C(COC(=O)Cc1cc(Cl)c(N)c(OC)c1)C[C@]1(O)C(=O)C(C)=C[C@@H]41)O2` (stereo partly specified), in that order: 0.85 nM, 34% and 56%.
A word on the EC50: it is the concentration at which the effect is half-maximal. For the compound `C=C(C)[C@@]12C[C@@H](C)C34OC(Cc5ccccc5)(OC1[C@@H]3C=C(COC(=O)Cc1cc(Br)c(N)c(OC)c1)C[C@]1(O)C(=O)C(C)=C[C@@H]41)O2` (stereo partly specified), the inhibition constant Ki in assay [1] was 1.99 nM; in assay [5] (read-out: Ki), 2.81 nM. In assay [4] (cho), the half-maximal effective concentration (EC50) result is “Not Active”.
In the case of `C=C(C)[C@@]12C[C@@H](C)C34OC(Cc5ccccc5)(OC1[C@@H]3C=C(COC(=O)Cc1cc(F)c(N)c(OC)c1)C[C@]1(O)C(=O)C(C)=C[C@@H]41)O2` (stereo partly specified), the values for the inhibition constant Ki in assay [1] and in assay [5] (cho) were 0.7 nM and “Not Active”, respectively. For the same compound, in assay [4] (read-out: EC50), the EC50 was 1.14 nM.
Turning to `C=C(C)[C@]12C[C@@H](C)[C@@]34O[C@](Cc5ccccc5)(O[C@@H]1[C@@H]3C=C(COC(=O)Cc1ccc(O)c(OC)c1)C[C@]1(O)C(=O)C(C)=C[C@@H]41)O2` [RESINIFERATOXIN], in assay [5] (cho), the Ki result is “Not Active”.
With `C=C(C)[C@@]12C[C@@H](C)C34OC(Cc5ccccc5)(OC1[C@@H]3C=C(COC(=O)Cc1cc(Br)cc(Br)c1)C[C@]1(O)C(=O)C(C)=C[C@@H]41)O2` (stereo partly specified), the Ki in assay [1] is 110 nM; in assay [5] (cho), “Not Active”. Further, in assay [4] (read-out: EC50), the EC50 was 1070 nM.
On to `C=C(C)[C@@]12C[C@@H](C)C34OC(Cc5ccccc5)(OC1[C@@H]3C=C(COC(=O)Cc1cc(Br)c(O)c(OC)c1)C[C@]1(O)C(=O)C(C)=C[C@@H]41)O2` (stereo partly specified), for which the Ki in assay [1] came out at 0.17 nM; in assay [5] (read-out: Ki), 7.2 nM. In addition, the Activity in assay [2] was 19%.
Consider `C=C(C)[C@@]12C[C@@H](C)C34OC(Cc5ccccc5)(OC1[C@@H]3C=C(COC(=O)Cc1ccc(N)c(OC)c1)C[C@]1(O)C(=O)C(C)=C[C@@H]41)O2` (stereo partly specified), for which the Ki in assay [1] is 0.13 nM; in assay [5] (cho) it was “Not Active”. Besides, the EC50 in assay [4] (read-out: EC50) is 0.46 nM.
For `C=C(C)[C@@]12C[C@@H](C)C34OC(Cc5ccccc5)(OC1[C@@H]3C=C(COC(=O)Cc1cc(F)c(O)c(OC)c1)C[C@]1(O)C(=O)C(C)=C[C@@H]41)O2` (stereo partly specified), in that order: 0.26 nM, “Not Active” and 1.88 nM.
As to `C=C(C)[C@@]12C[C@@H](C)C34OC(Cc5ccccc5)(OC1[C@@H]3C=C(COC(=O)Cc1cc(I)c(O)c(OC)c1)C[C@]1(O)C(=O)C(C)=C[C@@H]41)O2` (stereo partly specified), the Ki in assay [1] came out at 0.61 nM; in assay [5] (read-out: Ki), 12.2 nM. In assay [4] (cho), the half-maximal effective concentration (EC50) entry is “Not Active”.
On to `C=C(C)[C@@]12C[C@@H](C)C34OC(Cc5ccccc5)(OC1[C@@H]3C=C(COC(=O)Cc1cc(Cl)c(O)c(OC)c1)C[C@]1(O)C(=O)C(C)=C[C@@H]41)O2` (stereo partly specified), for which the values for the Ki in assay [1] and in assay [5] (cho) were 1.03 nM and “Not Active”, respectively. The concentration giving a half-maximal response (EC50) in assay [4] (read-out: EC50) was 5.7 nM.
